According to PubChem BioAssay AID1845216 (Molecular Pharmacology Branch, DTP, NCI, 2023):
Several values for one entry are separate records, joined by “and”; a condition that tells them apart may be missing. Identical values can stand only once.

System: SW 982 tumor spheroid viability
Experiment: Anticancer human tumor SW 982 cell line growth inhibition;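 also: spheroids exposed to compound for 7 days before readout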
Settings: spheroids with HUVEC and MSC; for viability, T/C: stronger effect = lower value
How it was run: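 Complex tumor spheroids combined malignant cells with endothelial cells and mesenchymal stem cells. DNA-damaging drugs and DNA repair inhibitors were tested alone and in combination, at half-log dilutions down from clinical Cmax (top 10 microM if Cmax unknown), 0.25% DMSO final.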

COc1cc(C)[nH]c(=O)c1CN1CCc2c(Cl)cc(C(OC)C3COC3)c(Cl)c2C1=O (configuration not stated) + COc1cc2c(cc1O)CCNC21CSC2c3c(OC(C)=O)c(C)c4c(c3C(COC1=O)N1C(O)C3Cc5cc(C)c(OC)c(O)c5C(C21)N3C)OCO4
IC50 (curve of first compound, second compound 30 pM): > 10000 nM | IC50 (curve of first compound, second compound 94.9 pM): > 10000 nM | IC50 (curve of first compound, second compound 0.0003 µM): > 10000 nM | IC50 (curve of first compound, second compound 0.000949 µM): < 31.6 nM | IC50 (curve of first compound, second compound 0.003 µM): < 31.6 nM | viability, T/C (second compound 30 pM, first compound 0.0316 µM): 98.5% | viability, T/C (second compound 30 pM, first compound 0.1 µM): 107% | viability, T/C (second compound 30 pM, first compound 0.316 µM): 90.2% | viability, T/C (second compound 30 pM, first compound 1 µM): 97.7% | viability, T/C (second compound 30 pM, first compound 3.16 µM): 102% | viability, T/C (second compound 30 pM, first compound 10 µM): 107% | viability, T/C (second compound 94.9 pM, first compound 0.0316 µM): 90.5% | viability, T/C (second compound 94.9 pM, first compound 0.1 µM): 95.6% | viability, T/C (second compound 94.9 pM, first compound 0.316 µM): 95.7% | viability, T/C (second compound 94.9 pM, first compound 1 µM): 103% | viability, T/C (second compound 94.9 pM, first compound 3.16 µM): 99.8% | viability, T/C (second compound 94.9 pM, first compound 10 µM): 91.7% | viability, T/C (second compound 0.0003 µM, first compound 0.0316 µM): 86.9% | viability, T/C (second compound 0.0003 µM, first compound 0.1 µM): 82.9% | viability, T/C (second compound 0.0003 µM, first compound 0.316 µM): 89.1% | viability, T/C (second compound 0.0003 µM, first compound 1 µM): 91.3% | viability, T/C (second compound 0.0003 µM, first compound 3.16 µM): 84.7% | viability, T/C (second compound 0.0003 µM, first compound 10 µM): 85.3% | viability, T/C (second compound 0.000949 µM, first compound 0.0316 µM): 38.3% | viability, T/C (second compound 0.000949 µM, first compound 0.1 µM): 48.7% | viability, T/C (second compound 0.000949 µM, first compound 0.316 µM): 38% | viability, T/C (second compound 0.000949 µM, first compound 1 µM): 45.6% | viability, T/C (second compound 0.000949 µM, first compound 3.16 µM): 47.3% | viability, T/C (second compound 0.000949 µM, first compound 10 µM): 28.3% | viability, T/C (second compound 0.003 µM, first compound 0.0316 µM): 0.42% | viability, T/C (second compound 0.003 µM, first compound 0.1 µM): 0.99% | viability, T/C (second compound 0.003 µM, first compound 0.316 µM): 0.77% | viability, T/C (second compound 0.003 µM, first compound 1 µM): 0.49% | viability, T/C (second compound 0.003 µM, first compound 3.16 µM): 0.64% | viability, T/C (second compound 0.003 µM, first compound 10 µM): 1.1%

COc1cc(C)[nH]c(=O)c1CN1CCc2c(Cl)cc(C(OC)C3COC3)c(Cl)c2C1=O (configuration not stated)
viability, T/C (compound 0.0316 µM): 72.5% and 105% and 108% | viability, T/C (compound 0.1 µM): 94.6% and 111% and 95.2% | viability, T/C (compound 0.316 µM): 100% and 109% and 89.6% | viability, T/C (compound 1 µM): 108% and 107% and 93.8% | viability, T/C (compound 3.16 µM): 113% and 110% and 96.4% | viability, T/C (compound 10 µM): 94.8% and 100% and 98.8% | IC50 (curve of compound): > 10000 nM

CNCc1ccc(-c2cc(-c3nc(-c4ccc(S(=O)(=O)C(C)C)cc4)cnc3N)on2)cc1 + Cn1nnc2c(C(N)=O)ncn2c1=O
IC50 (curve of first compound, second compound 1 µM): 219 nM | IC50 (curve of first compound, second compound 3.16 µM): 228 nM | IC50 (curve of first compound, second compound 10 µM): 160 nM | IC50 (curve of first compound, second compound 31.6 µM): 109 nM | IC50 (curve of first compound, second compound 100 µM): 53.4 nM | viability, T/C (second compound 1 µM, first compound 0.00949 µM): 95.6% | viability, T/C (second compound 1 µM, first compound 0.03 µM): 89.3% | viability, T/C (second compound 1 µM, first compound 0.0949 µM): 75.1% | viability, T/C (second compound 1 µM, first compound 0.3 µM): 38% | viability, T/C (second compound 1 µM, first compound 0.949 µM): 28.6% | viability, T/C (second compound 1 µM, first compound 3 µM): 14.7% | viability, T/C (second compound 3.16 µM, first compound 0.00949 µM): 92.9% | viability, T/C (second compound 3.16 µM, first compound 0.03 µM): 87.2% | viability, T/C (second compound 3.16 µM, first compound 0.0949 µM): 68.8% | viability, T/C (second compound 3.16 µM, first compound 0.3 µM): 39.5% | viability, T/C (second compound 3.16 µM, first compound 0.949 µM): 29.8% | viability, T/C (second compound 3.16 µM, first compound 3 µM): 9.23% | viability, T/C (second compound 10 µM, first compound 0.00949 µM): 72.7% | viability, T/C (second compound 10 µM, first compound 0.03 µM): 71.9% | viability, T/C (second compound 10 µM, first compound 0.0949 µM): 60% | viability, T/C (second compound 10 µM, first compound 0.3 µM): 35.3% | viability, T/C (second compound 10 µM, first compound 0.949 µM): 26.7% | viability, T/C (second compound 10 µM, first compound 3 µM): 8.84% | viability, T/C (second compound 31.6 µM, first compound 0.00949 µM): 69% | viability, T/C (second compound 31.6 µM, first compound 0.03 µM): 67.7% | viability, T/C (second compound 31.6 µM, first compound 0.0949 µM): 51.6% | viability, T/C (second compound 31.6 µM, first compound 0.3 µM): 31.7% | viability, T/C (second compound 31.6 µM, first compound 0.949 µM): 23.1% | viability, T/C (second compound 31.6 µM, first compound 3 µM): 8.96% | viability, T/C (second compound 100 µM, first compound 0.00949 µM): 63.5% | viability, T/C (second compound 100 µM, first compound 0.03 µM): 58.8% | viability, T/C (second compound 100 µM, first compound 0.0949 µM): 43.5% | viability, T/C (second compound 100 µM, first compound 0.3 µM): 28.1% | viability, T/C (second compound 100 µM, first compound 0.949 µM): 22.7% | viability, T/C (second compound 100 µM, first compound 3 µM): 5.36%
